Patent publication US12649750B2, “Macrocyclic compounds, compositions, and methods of using thereof” (Sionna Therapeutics Inc., priority 2022, dated 2026)

What follows are compounds tested against T1, NBD1 (Homo sapiens, UniProt P13569) (assay: Aggregation analysis using differential static light scattering (DSLS), thermal stability of NBD1 (ΔTagg)). Settings: ΔTagg versus DMSO control, NBD1 0.2 mg/ml.
T1 construct: Purified recombinant NBD1 was produced using previously described methods; made in house
T1 sequence (P13569 423-646 limits assumed): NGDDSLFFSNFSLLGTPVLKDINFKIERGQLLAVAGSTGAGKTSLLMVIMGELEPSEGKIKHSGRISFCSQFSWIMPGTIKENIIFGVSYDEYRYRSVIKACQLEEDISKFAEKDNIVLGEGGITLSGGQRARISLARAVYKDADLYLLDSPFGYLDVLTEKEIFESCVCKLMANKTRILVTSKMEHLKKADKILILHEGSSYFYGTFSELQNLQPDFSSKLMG
Type: binding
Summary of the method: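 Purified recombinant NBD1 at 0.2 mg/ml in 50 mM Tris-HCl, 150 mM NaCl, 5 mM MgCl2, 2 mM ATP, 2 mM DTT, pH 7.6, 1% glycerol, with compound, heated 1° C./min to 70° C. under light-scattering monitoring. Tagg taken at curve inflection; ΔTagg is compound Tagg minus mean DMSO-control Tagg, binned A (≤5° C.), B (>5-≤10° C.), C (>10-≤25° C.).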
`C[C@H](Cc1cccc([C@@]2(C)CCCC(C)(C)CS(=O)(=O)CCc3c(c(F)cc4[nH]ccc34)S(=O)(=O)c3ccnc(c3)-c3nc2nn3C)c1)C(=O)O` [Compound 349, (2R)-3-[3-[(6R)-22-Fluoro-3,6,10,10-tetramethyl-12,12,24,24-tetraoxo-12λ6,24λ6-dithia-3,4,19,28,30-pentazapentacyclo[23.3.1.12,5.015,23.016,20]triaconta-1(29),2(30),4,15,17,20,22,25,27-nonaen-6-yl]phenyl]-2-methyl-propanoic Acid] was tested, and the “DSLS 3D (100 μM ΔT)” value was “B (a value above 5 °C and less than or equal to 10 °C is marked “B”)”.
`Cn1nc2nc1-c1cc(ccn1)S(=O)(=O)c1c(F)cc3[nH]ccc3c1CCS(=O)(=O)CC(C)(C)CCC[C@]2(C)c1cccc(CC(C)(C)C(=O)O)c1` [Compound 350, 3-[3-[(6R)-22-Fluoro-3,6,10,10-tetramethyl-12,12,24,24-tetraoxo-12λ6,24λ6-dithia-3,4,19,28,30-pentazapentacyclo[23.3.1.12,5.015,23.016,20]triaconta-1(29),2(30),4,15,17,20,22,25,27-nonaen-6-yl]phenyl]-2,2-dimethyl-propanoic Acid] was tested, and the “DSLS 3D (100 μM ΔT)” value was “A (an ΔTagg value less than or equal to 5 °C is marked “A”)”.
`C[C@@H](Cc1cccc([C@@]2(C)CCCC(C)(C)CS(=O)(=O)CCc3c(c(F)c(F)c4[nH]ccc34)S(=O)(=O)c3ccc(F)c(c3)-c3nc2nn3C)c1)C(=O)O` [Compound 351, (2S)-2-Methyl-3-[3-[(6R)-21,22,28-trifluoro-3,6,10,10-tetramethyl-12,12,24,24-tetraoxo-12λ6,24λ6-dithia-3,4,19,30-tetrazapentacyclo[23.3.1.12,5.015,23.016,20]triaconta-1(29),2(30),4,15,17,20,22,25,27-nonaen-6-yl]phenyl]propanoic Acid] was tested, and the “DSLS 3D (100 μM ΔT)” value was “B (a value above 5 °C and less than or equal to 10 °C is marked “B”)”.
With `Cn1nc2nc1-c1cc(ccn1)S(=O)(=O)c1c(F)c(F)c3[nH]ccc3c1CCS(=O)(=O)CC(C)(C)CCC[C@]2(C)c1cccc(CC(C)(C)C(=O)O)c1` [Compound 352, 3-[3-[(6R)-21,22-Difluoro-3,6,10,10-tetramethyl-12,12,24,24-tetraoxo-12λ6,24λ6-dithia-3,4,19,28,30-pentazapentacyclo[23.3.1.12,5.015,23.016,20]triaconta-1(29),2(30),4,15,17,20,22,25,27-nonaen-6-yl]phenyl]-2,2-dimethyl-propanoic Acid] the “DSLS 3D (100 μM ΔT)” value was “A (an ΔTagg value less than or equal to 5 °C is marked “A”)”.
`C[C@@H](Cc1cccc([C@@]2(C)CCCC(C)(C)CS(=O)(=O)CCc3c[nH]c4c(F)c(F)c(cc34)Oc3ccc(F)c(c3)-c3nc2nn3C)c1)C(=O)O` [Compound 353, (2S)-2-Methyl-3-[3-[(12R)-6,25,26-trifluoro-9,12,16,16-tetramethyl-18,18-dioxo-2-oxa-18λ6-thia-9,10,23,29-tetrazapentacyclo[19.5.2.13,7.18,11.024,28]triaconta-1(26),3,5,7(30),8(29),10,21,24,27-nonaen-12-yl]phenyl]propanoic Acid] was tested, and the “DSLS 3D (100 μM ΔT)” value was “A (an ΔTagg value less than or equal to 5 °C is marked “A”)”.
For `COC(=O)[C@@H](C)Cc1cccc([C@@]2(C)CCCC(C)(C)CS(=O)(=O)CCc3c[nH]c4cc(F)c(cc34)Sc3ccc(F)c(c3)-c3nc2nn3C)c1` [Compound 354, Methyl (2S)-3-[3-[(12R)-6,26-difluoro-9,12,16,16-tetramethyl-18,18-dioxo-2,18λ6-dithia-9,10,23,29-tetrazapentacyclo[19.5.2.13,7.18,11.024,28]triaconta-1(26),3,5,7(30),8(29),10,21,24,27-nonaen-12-yl]phenyl]-2-methyl-propanoate], the “DSLS 3D (100 μM ΔT)” value was “A (an ΔTagg value less than or equal to 5 °C is marked “A”)”.
In the case of `C[C@@H](Cc1cccc([C@@]2(C)CCCC(C)(C)CS(=O)(=O)CCc3c[nH]c4cc(F)c(cc34)[S+]([O-])c3ccc(F)c(c3)-c3nc2nn3C)c1)C(=O)O` (some centres unmarked) [Compound 355], the “DSLS 3D (100 μM ΔT)” value is reported as “A (an ΔTagg value less than or equal to 5 °C is marked “A”)”.
In the case of `C[C@H](Cc1cccc([C@@]2(C)CCCC(C)(C)CS(=O)(=O)CCc3c(ncc4[nH]ccc34)Oc3ccc(F)c(c3)-c3nc2nn3C)c1)C(=O)O` [Compound 356, (2R)-3-[3-[(6R)-28-Fluoro-3,6,10,10-tetramethyl-12,12-dioxo-24-oxa-12λ6-thia-3,4,19,22,30-pentazapentacyclo[23.3.1.12,5.015,23.016,20]triaconta-1(29),2(30),4,15,17,20,22,25,27-nonaen-6-yl]phenyl]-2-methyl-propanoic acid], the “DSLS 3D (100 μM ΔT)” value is reported as “A (an ΔTagg value less than or equal to 5 °C is marked “A”)”.
With `C[C@@H](Cc1cccc([C@@]2(C)CCCC(C)(C)CS(=O)(=O)CCc3c(c(F)cc4[nH]ccc34)S(=O)(=O)c3cccc(c3)-c3nc2nn3C)c1)C(=O)O` [Compound 357, (2S)-3-[3-[(6R)-22-Fluoro-3,6,10,10-tetramethyl-12,12,24,24-tetraoxo-12λ6,24λ6-dithia-3,4,19,30-tetrazapentacyclo[23.3.1.12,5.015,23.016,20]triaconta-1(29),2(30),4,15,17,20,22,25,27-nonaen-6-yl]phenyl]-2-methyl-propanoic Acid] the “DSLS 3D (100 μM ΔT)” value was “B (a value above 5 °C and less than or equal to 10 °C is marked “B”)”.
In the case of `Cn1nc2nc1-c1cc(ccc1F)S(=O)(=O)c1c(F)c(F)c3[nH]ccc3c1CCS(=O)(=O)CC(C)(C)CCC[C@]2(C)c1cccc(CC(C)(C)C(=O)O)c1` [Compound 358, 2,2-Dimethyl-3-[3-[(6R)-21,22,28-trifluoro-3,6,10,10-tetramethyl-12,12,24,24-tetraoxo-12λ6,24λ6-dithia-3,4,19,30-tetrazapentacyclo[23.3.1.12,5.015,23.016,20]triaconta-1(29),2(30),4,15,17,20,22,25,27-nonaen-6-yl]phenyl]propanoic Acid], the “DSLS 3D (100 μM ΔT)” value is reported as “A (an ΔTagg value less than or equal to 5 °C is marked “A”)”.
In the case of `C[C@@H](Cc1cccc([C@@]2(C)CCCC(C)(C)CS(=O)(=O)CCc3c(c(F)cc4[nH]ncc34)Oc3ccc(F)c(c3)-c3nc2nn3C)c1)C(=O)O` [Compound 359, (2S)-3-[3-[(6R)-22,28-Difluoro-3,6,10,10-tetramethyl-12,12-dioxo-24-oxa-12λ6-thia-3,4,18,19,30-pentazapentacyclo[23.3.1.12,5.015,23.016,20]triaconta-1(29),2(30),4,15,17,20,22,25,27-nonaen-6-yl]phenyl]-2-methyl-propanoic Acid], the “DSLS 3D (100 μM ΔT)” value is reported as “B (a value above 5 °C and less than or equal to 10 °C is marked “B”)”.
`CNC1CS(=O)(=O)CC(C)(C)CCC[C@](C)(c2cccc(C[C@@H](C)C(=O)O)c2)c2nc(n(C)n2)-c2cc(ccc2F)Oc2c(F)c(F)c3[nH]ccc3c21` (stereo partly drawn) [Compound 360D, (2R)-2-Methyl-3-[3-[(6R)-21,22,28-trifluoro-3,6,10,10-tetramethyl-14-(methylamino)-12,12-dioxo-24-oxa-12λ6-thia-3,4,19,30-tetrazapentacyclo[23.3.1.12,5.015,23.016,20]triaconta-1(29),2(30),4,15,17,20,22,25,27-nonaen-6-yl]phenyl]propanoic Acid] was tested, and the “DSLS 3D (100 μM ΔT)” value was “A (an ΔTagg value less than or equal to 5 °C is marked “A”)”.
`Cn1nc2nc1-c1cc(ccc1F)Oc1c(F)c(F)c3[nH]cc(CC(=O)O)c3c1CCS(=O)(=O)CC(C)(C)CCC[C@]2(C)c1ccccc1` [Compound 361, 2-[(6R)-21,22,28-Trifluoro-3,6,10,10-tetramethyl-12,12-dioxo-6-phenyl-24-oxa-12λ6-thia-3,4,19,30-tetrazapentacyclo[23.3.1.12,5.015,23.016,20]triaconta-1(29),2(30),4,15,17,20,22,25,27-nonaen-17-yl]acetic Acid] was tested, and the “DSLS 3D (100 μM ΔT)” value was “A (an ΔTagg value less than or equal to 5 °C is marked “A”)”.
In the case of `Cn1nc2nc1-c1cc(ccn1)Sc1c(F)cc3[nH]cc(CC(=O)O)c3c1CCS(=O)(=O)CC(C)(C)CCC[C@]2(C)c1ccccc1` [Compound 362, 2-[(6R)-22-Fluoro-3,6,10,10-tetramethyl-12,12-dioxo-6-phenyl-12λ6,24-dithia-3,4,19,28,30-pentazapentacyclo[23.3.1.12,5.015,23.016,20]triaconta-1(29),2(30),4,15,17,20,22,25,27-nonaen-17-yl]acetic Acid], the “DSLS 3D (100 μM ΔT)” value is reported as “A (an ΔTagg value less than or equal to 5 °C is marked “A”)”.
`Cn1nc2nc1-c1cc(ccn1)Oc1c(F)c(F)c3[nH]cc(CC(=O)O)c3c1CCS(=O)(=O)CC(C)(C)CCC[C@]2(C)c1ccccc1` [Compound 363, 2-[(6R)-21,22-Difluoro-3,6,10,10-tetramethyl-12,12-dioxo-6-phenyl-24-oxa-12λ6-thia-3,4,19,28,30-pentazapentacyclo[23.3.1.12,5.015,23.016,20]triaconta-1(29),2(30),4,15,17,20,22,25,27-nonaen-17-yl]acetic acid] was tested, and the “DSLS 3D (100 μM ΔT)” value was “A (an ΔTagg value less than or equal to 5 °C is marked “A”)”.
For `Cn1nc2nc1-c1cc(ccn1)Cc1c(F)cc3[nH]cc(CC(=O)O)c3c1CCS(=O)(=O)CC(C)(C)CCC[C@]2(C)c1ccccc1` [Compound 364, 2-[(6R)-22-Fluoro-3,6,10,10-tetramethyl-12,12-dioxo-6-phenyl-12λ6-thia-3,4,19,28,30-pentazapentacyclo[23.3.1.12,5.015,23.016,20]triaconta-1(29),2(30),4,15,17,20,22,25,27-nonaen-17-yl]acetic Acid], the “DSLS 3D (100 μM ΔT)” value was “A (an ΔTagg value less than or equal to 5 °C is marked “A”)”.
`Cn1nc2nc1-c1cc(ccn1)S(=O)(=O)c1c(F)cc3[nH]cc(CC(=O)O)c3c1CCS(=O)(=O)CC(C)(C)CCC[C@]2(C)c1ccccc1` [Compound 366, 2-[(6R)-22-Fluoro-3,6,10,10-tetramethyl-12,12,24,24-tetraoxo-6-phenyl-12λ6,24λ6-dithia-3,4,19,28,30-pentazapentacyclo[23.3.1.12,5.015,23.016,20]triaconta-1(29),2(30),4,15,17,20,22,25,27-nonaen-17-yl]acetic acid] was tested, and the “DSLS 3D (100 μM ΔT)” value was “A (an ΔTagg value less than or equal to 5 °C is marked “A”)”.
